Series [1] concerns the target T1, vanilloid receptor 1 (VR1/TRPV1) of the rat (Rattus norvegicus, UniProt O35433).
T1 construct: host or cells: rat dorsal root ganglia primary cells (Ia) or CHO K1 cells stably transfected with the rat VR1 gene (Ib)
The series can be described thus: FLIPR Ca2+ functional study on rat vanilloid receptor 1 (rat dorsal root ganglia cells or CHO K1 cells transfected with rat VR1). The series is classed as cell-based. The note with it: for activation at 10 µM / inhibition at 10 µM: CHO-K1; for activation at 10 µM / inhibition at 10 µM / VR1 (rat) (% stimulation compared to 10 μM CP) / VR1 (rat) (% inhibition compared to 10 μM CP): test compound 10 μM; for activation at 10 µM / VR1 (rat) (% stimulation compared to 10 μM CP): % activation based on Ca2+ signal after 10 μM capsaicin (CP); for activation at 10 µM: read-out: VR1 (rat) (% stimulation compared to 10 μM CP); for inhibition at 10 µM / VR1 (rat) (% inhibition compared to 10 μM CP): suppression of Ca2+ current after 100 nM capsaicin, relative to maximum inhibition with 10 μM capsaicin (CP); for inhibition at 10 µM: read-out: VR1 (rat) (% inhibition compared to 10 μM CP); for EC50: agonistic action. As to the method: The agonistic or antagonistic action of the substances to be studied on the vanilloid receptor 1 (VR1/TRPV1) of the rat species can be determined with the following assay. In this assay, the Ca^2+ current through the receptor channel is quantified with the aid of a Ca^2+-sensitive dye (Fluo-4 type, Molecular Probes Europe BV, Leiden the Netherlands) in a fluorescent imaging plate reader (FLIPR, Molecular Devices, Sunnyvale, USA).
Complete medium: 50 ml HAMS F12 Nutrient Mixture (Gibco Invitrogen GmbH, Karlsruhe, Germany) with
10% by volume of FCS (fetal calf serum, Gibco Invitrogen GmbH, Karlsruhe, Germany, heat-inactivated);
2 mM L-glutamine (Sigma, Munich, Germany);
1% by weight of AA solution (antibiotic/antimycotic solution, PAA, Pasching, Austria) and 25 ng/ml of NGF medium (2.5 S, Gibco Invitrogen GmbH, Karlsruhe, Germany)
Cell culture plate: poly-D-lysine-coated, black 96-hole plates with a clear bottom (96 well black/clear plate, BD Biosciences, Heidelberg, Germany) are additionally coated with laminin (Gibco Invitrogen GmbH, Karlsruhe, Germany) by diluting laminin to a concentration of 100 μg/ml with PBS (Ca—Mg-free PBS, Gibco Invitrogen GmbH, Karlsruhe, Germany). Aliquots having a concentration of 100 μg/ml of laminin are withdrawn and stored at −20° C. The aliquots are diluted with PBS in a ratio of 1:10 to 10 μg/ml of laminin and in each case 50 μl of the solution are pipetted into a well of the cell culture plate. The cell culture plates are incubated at 37° C. for at least two hours, the supernatant solution is removed by suction and the wells are each washed twice with PBS. The coated cell culture plates are stored with supernatant PBS which is not removed until directly before the application of the cells.
The spinal column is removed from beheaded rats and placed directly into cold HBSS buffer (Hank's buffered saline solution, Gibco Invitrogen GmbH, Karlsruhe, Germany), i.e. placed in an ice bath, which has been admixed with 1% by volume of an AA solution (antibiotic/antimycotic solution, PAA, Pasching, Austria). The spinal column is severed longitudinally and removed from the spinal canal together with fasciae. Subsequently, the dorsal root ganglia (DRGs) are removed and in turn stored in cold HBSS buffer admixed with 1% by volume of an […]. The DRGs freed completely of blood residues and spinal nerves are in each case transferred to 500 μl of cold type 2 collagenase (PAA, Pasching, Austria) and incubated at 37° C. for 35 minutes. After addition of 2.5% by volume of trypsin (PAA, Pasching, Austria), incubation is continued at 37° C. for a further 10 minutes. After complete incubation, the enzyme solution is cautiously pipetted off and the remaining DRGs are each admixed with 500 μl of complete medium.
The DRGs are each suspended repeatedly, drawn through cannulas No. 1, No. 12 and No. 16 by means of a syringe and transferred to 50 ml Falcon tubes which are made up to 15 ml with complete medium. The contents of each Falcon tube are in each case filtered through a 70 μm Falcon filter insert and centrifuged at 1200 revolutions and room temperature for 10 minutes. The resulting pellet is in each case taken up in 250 μl of complete medium and the cell count is determined.
The number of cells in the suspension is adjusted to 3 times 10^5 per ml and in each case 150 μl of this suspension are added to one well of the cell culture plates coated as described above. In the incubator, the plates are left to stand at 37° C., 5% by volume of CO2 and 95% relative air humidity for two to three days.
Subsequently, the cells are laden with 2 μM Fluo-4 and 0.01% by volume of Pluronic F127 (Molecular Probes Europe BV, Leiden, the Netherlands) in HBSS buffer (Hank's buffered saline solution, Gibco Invitrogen GmbH, Karlsruhe, Germany) at 37° C. for 30 min, washed 3× with HBSS buffer and, after a further incubation of 15 minutes, used in the FLIPR assay at room temperature for Ca^2+ measurement. […]

The target of series [2] is T2, human vanilloid receptor 1 (VR1) (Homo sapiens, UniProt Q8NER1).
T2 construct: expressed in transfected cells; host or cells: CHO K1 cells (ECACC), stably transfected
T2 sequence (Q8NER1 whole entry): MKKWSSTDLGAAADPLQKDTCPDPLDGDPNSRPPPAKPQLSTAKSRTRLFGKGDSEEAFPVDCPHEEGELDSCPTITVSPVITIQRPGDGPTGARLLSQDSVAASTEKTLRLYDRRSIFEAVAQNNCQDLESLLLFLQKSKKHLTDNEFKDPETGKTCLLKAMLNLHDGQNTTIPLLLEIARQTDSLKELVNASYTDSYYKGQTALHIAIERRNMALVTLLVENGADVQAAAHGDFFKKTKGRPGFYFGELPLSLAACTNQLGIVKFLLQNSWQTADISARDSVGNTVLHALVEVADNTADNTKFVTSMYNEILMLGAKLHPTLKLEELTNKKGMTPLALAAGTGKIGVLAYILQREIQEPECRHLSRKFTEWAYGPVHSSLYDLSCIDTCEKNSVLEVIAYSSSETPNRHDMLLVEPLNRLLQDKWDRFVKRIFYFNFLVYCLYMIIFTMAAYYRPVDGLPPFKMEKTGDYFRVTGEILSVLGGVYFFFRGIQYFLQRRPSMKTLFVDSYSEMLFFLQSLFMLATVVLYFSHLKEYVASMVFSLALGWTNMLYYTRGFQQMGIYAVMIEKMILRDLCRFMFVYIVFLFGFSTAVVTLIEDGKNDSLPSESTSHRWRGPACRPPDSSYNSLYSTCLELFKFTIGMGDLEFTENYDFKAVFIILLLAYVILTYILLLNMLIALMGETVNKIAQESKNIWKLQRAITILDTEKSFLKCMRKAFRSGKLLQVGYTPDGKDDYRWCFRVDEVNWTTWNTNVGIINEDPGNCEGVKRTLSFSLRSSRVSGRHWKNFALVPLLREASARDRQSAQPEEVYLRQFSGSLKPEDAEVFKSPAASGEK
The series is described as follows: FLIPR Ca2+ functional study on human vanilloid receptor 1 (CHO K1 cells transfected with human VR1). The note with it: for inhibition at 10 µM: CHO-K1, read-out: VR1 (human) (% inhibition compared to 10 μM CP); for inhibition at 10 µM / VR1 (human) (% inhibition compared to 10 μM CP): test compound 10 μM, suppression of Ca2+ current after 100 nM capsaicin, relative to maximum inhibition with 10 μM capsaicin (CP); for EC50: agonistic action. It counts as cell-based. Here is the method:
Chinese hamster ovary cells (CHO K1 cells, European Collection of Cell Cultures (ECACC), England) are transfected stably with the human vanilloid receptor 1 (VR1) gene or the vanilloid receptor 1 (VR1) gene of the rat. For functional studies, these cells are plated out onto poly-D-lysine-coated black 96-well plates with a clear bottom (BD Biosciences, Heidelberg, Germany) in a density of 25 000 cells/well. The cells are incubated overnight at 37° C. and 5% CO2 in culture medium (Ham's Nutrient Mixture F12, Gibco Invitrogen GmbH, Karlsruhe, Germany) with 10% by volume of FBS (fetal bovine serum, Gibco Invitrogen GmbH, Karlsruhe, Germany), and 18 μg/ml of L-proline (Gibco Invitrogen GmbH, Karlsruhe, Germany). The next day, the cells are laden with 2 μM Fluo-4 and 0.01% by volume of Pluronic F127 (Molecular Probes Europe BV, Leiden, The Netherlands) in HBSS buffer (Hank's buffered saline solution, Gibco Invitrogen GmbH, Karlsruhe, Germany) at 37° C. for 30 min. Subsequently, the plates are washed 3 times with HBSS buffer and, after a further incubation of 15 minutes at room temperature, used for Ca^2+ measurement in the FLIPR assay. The Ca^2+-dependent fluorescence is measured before and after addition of substances λex=488 nm, λem=540 nm). The quantification is effected by measuring the highest fluorescence intensity (FC, fluorescence counts) over the time.
The FLIPR protocol consists of 2 substance additions. First, the compounds to be tested (10 μM) are pipetted onto the cells obtained according to Ia or Ib and the Ca^2+ current is compared with the control (capsaicin 10 μM). This gives rise to the result in % activation based on the Ca^2+ signal after addition of 10 μM capsaicin (CP). After incubation for 5 minutes, 100 nM capsaicin is applied and the current of Ca^2+ is likewise determined.
Desensitizing agonists and antagonists lead to a suppression in the Ca^2+ current. % inhibition is calculated compared to the maximum achievable inhibition with 10 μM capsaicin.
Triple determinations (n=3) are performed and they are repeated in at least 3 independent experiments (N=4).

Data on 14 compounds can be found in patent publication US7973072B2, “Substituted benzo-condensed cyclohexanone derivatives and the use thereof for medicament production” (Gruenenthal GmbH, priority 2005, dated 2011).

T1 sequence (O35433 whole entry): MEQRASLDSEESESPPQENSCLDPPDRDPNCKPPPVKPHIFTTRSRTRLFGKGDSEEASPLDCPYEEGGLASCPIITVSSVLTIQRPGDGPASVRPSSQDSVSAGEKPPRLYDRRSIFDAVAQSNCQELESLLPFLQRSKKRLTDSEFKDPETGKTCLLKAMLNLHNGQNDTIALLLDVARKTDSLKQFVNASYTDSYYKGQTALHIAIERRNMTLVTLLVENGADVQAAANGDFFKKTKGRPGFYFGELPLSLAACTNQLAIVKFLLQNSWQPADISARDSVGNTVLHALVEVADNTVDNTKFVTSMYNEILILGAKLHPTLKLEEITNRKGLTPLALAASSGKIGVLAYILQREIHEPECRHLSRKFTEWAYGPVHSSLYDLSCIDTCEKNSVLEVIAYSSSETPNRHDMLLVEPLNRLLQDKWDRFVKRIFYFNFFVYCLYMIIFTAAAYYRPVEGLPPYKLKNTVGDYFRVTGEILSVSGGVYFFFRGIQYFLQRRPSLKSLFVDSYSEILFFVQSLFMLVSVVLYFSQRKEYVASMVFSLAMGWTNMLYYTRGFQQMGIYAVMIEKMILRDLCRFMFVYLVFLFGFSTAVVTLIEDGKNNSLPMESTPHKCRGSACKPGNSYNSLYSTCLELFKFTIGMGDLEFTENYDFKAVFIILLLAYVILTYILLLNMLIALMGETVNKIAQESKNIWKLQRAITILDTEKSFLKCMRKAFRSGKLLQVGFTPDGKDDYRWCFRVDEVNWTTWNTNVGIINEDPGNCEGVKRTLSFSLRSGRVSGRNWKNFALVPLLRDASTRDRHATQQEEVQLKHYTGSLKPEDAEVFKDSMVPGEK

What is called inhibition is the drop in the measured response relative to a control, in per cent. For orientation: EC50 means the midpoint of the concentration-response curve. The low end stands for an effect from little substance, the high end for a need for much substance. For orientation: melting point means the temperature of the solid-liquid transition. Turning to `COc1ccc(NC(=O)OCC2(COC(=O)Nc3ccc(OC)cc3)CSc3ccccc3C2=O)cc1` [Example Compound 42, 3,3-bis(4-methoxyphenylcarbamoyloxymethyl)thiochroman-4-one], the melting point lay in the range of 58 to 63 °C. For the same compound, in series [1], the activation at 10 µM turned out to be 37.8% and the inhibition at 10 µM is 41.1%. In addition, in series [1] (FLIPR), the EC50 was 9.95 µM. Besides, the inhibition at 10 µM in series [2] is 73.2%. Moreover, in series [2] (FLIPR), it took 3.05 µM to reach a half-maximal effect (EC50).

For “(7,8-dichloro-4-oxothiochroman-3,3-diyl)bis(methylene)bis(3-(trifluoromethyl)phenylcarbamate) [Example Compound 29]”, in series [1], the “VR1 (rat) (% stimulation compared to 10 μM CP)” value is on record as 88.01% and the “VR1 (rat) (% inhibition compared to 10 μM CP)” value is listed as 100.80%. The “VR1 (human) (% inhibition compared to 10 μM CP)” value in series [2] turned out to be 91.55%.

For `O=C(Nc1cccc(C(F)(F)F)c1)OCC1(COC(=O)Nc2cccc(C(F)(F)F)c2)CSc2ccccc2C1=O` [Example Compound 54, 3,3-bis(3-trifluoromethylphenylcarbamoyloxymethyl)thiochroman-4-one], the melting point lay within 58 to 63 °C.

As to `Cc1cccc2c1C(=O)C(COC(=O)Nc1ccccc1)(COC(=O)Nc1ccccc1)CS2(=O)=O` [Example Compound 46, 3,3-bis(phenylcarbamoyloxymethyl)-5-methyl-1,1-dioxo-1λ^6-thiochroman-4-one], the activation at 10 µM in series [1] turned out to be 25%. The inhibition at 10 µM in series [1] amounted to 96.8%; in series [2], 38.5%. Moreover, the EC50 in series [1] (FLIPR) is 13.8 µM; in series [2] (FLIPR) it was 6.4 µM.

In turn, “(7-methyl-4-oxothiochroman-3,3-diyl)bis(methylene)bis(phenylcarbamate) [Example Compound 39]” had an EC50 in series [1] (FLIPR) of 5.86 µM. Also, in series [1], the “VR1 (rat) (% stimulation compared to 10 μM CP)” value was 109.36% and the “VR1 (rat) (% inhibition compared to 10 μM CP)” value worked out at 119.74%. In addition, in series [2] (FLIPR), a half-maximal response (EC50) required 0.99 µM. Further, the “VR1 (human) (% inhibition compared to 10 μM CP)” value in series [2] is on record as 88.33%.

Take “(6-fluoro-4-oxothiochroman-3,3-diyl)bis(methylene)bis(3-(trifluoromethyl)phenylcarbamate) [Example Compound 30]”: in series [1], the “VR1 (rat) (% stimulation compared to 10 μM CP)” value was determined as 94.65% and the “VR1 (rat) (% inhibition compared to 10 μM CP)” value came out at 44.38%. Besides, the “VR1 (human) (% inhibition compared to 10 μM CP)” value in series [2] is recorded as 80.26%.

Turning to “(7,8-dichloro-4-oxothiochroman-3,3-diyl)bis(methylene)bis(2-(trifluoromethyl)phenylcarbamate) [Example Compound 31]”, in series [1], the “VR1 (rat) (% stimulation compared to 10 μM CP)” value is 22.05% and the “VR1 (rat) (% inhibition compared to 10 μM CP)” value came to 38.68%. Also, the “VR1 (human) (% inhibition compared to 10 μM CP)” value in series [2] was 83.36%.

For `O=C(Nc1ccc(C(F)(F)F)cc1)OCC1(COC(=O)Nc2ccc(C(F)(F)F)cc2)CSc2ccccc2C1=O` [Example Compound 52, 3,3-bis(4-trifluoromethylphenylcarbamoyloxymethyl)thiochroman-4-one], the melting point lay in the range of 76 to 82 °C.

As to `CC(C)(C)c1ccccc1NC(=O)OCC1(COC(=O)Nc2ccccc2C(C)(C)C)CSc2ccccc2C1=O` [Example Compound 51, 3,3-bis(2-tert-butylphenylcarbamoyloxymethyl)thiochroman-4-one], the melting point lay within 62 to 68 °C.

The term IC50 denotes the point on the concentration scale where inhibition reaches its midpoint. Low readings indicate inhibition by little substance, high ones a need for much substance. The compound “(8-chloro-4-oxothiochroman-3,3-diyl)bis(methylene)bis(3-(trifluoromethyl)phenylcarbamate) [Example Compound 20]” gave an IC50 in series [1] (FLIPR, antagonistic action) of 6.44 µM. Further, in series [1], the “VR1 (rat) (% stimulation compared to 10 μM CP)” value is recorded as 47.96% and the “VR1 (rat) (% inhibition compared to 10 μM CP)” value was found to be 107.78%. The compound also showed an IC50 in series [2] (FLIPR, antagonistic action) of 5.78 µM. For the same compound, the “VR1 (human) (% inhibition compared to 10 μM CP)” value in series [2] is 88.98%.

“(8-chloro-4-oxothiochroman-3,3-diyl)bis(methylene)bis(2-(trifluoromethyl)phenylcarbamate) [Example Compound 14]”: in series [1], the “VR1 (rat) (% stimulation compared to 10 μM CP)” value turned out to be 17.64% and the “VR1 (rat) (% inhibition compared to 10 μM CP)” value came to 61.99%. In addition, in series [2], the “VR1 (human) (% inhibition compared to 10 μM CP)” value was 69.64%.

Consider `Cc1cccc2c1C(=O)C(COC(=O)Nc1ccccc1)(COC(=O)Nc1ccccc1)CS2` [Example Compound 40, (5-methyl-4-oxothiochroman-3,3-diyl)bis(methylene)bis(phenylcarbamate)], for which, in series [1], the activation at 10 µM amounted to 67%. The figures for the inhibition at 10 µM in series [1] and in series [2] were 106% and 96.6%, respectively. Also, the values for the EC50 in series [1] (FLIPR) and in series [2] (FLIPR) were 4.1 µM and 1.4 µM, respectively.

As for `Cc1cccc2c1SCC(CO)(COS(=O)(=O)c1ccc(C(C)(C)C)cc1)C2=O` (stereo not shown) [Example Compound 13, 4-tert-butylbenzenesulfonic acid 3-hydroxymethyl-8-methyl-4-oxo-thiochroman-3-ylmethyl ester], in series [1], the activation at 10 µM was found to be 0.81% and the inhibition at 10 µM was 40.3%. Also, the inhibition at 10 µM in series [2] was 23.8%.

Consider `O=C(Nc1ccccc1)OCC1(COC(=O)Nc2ccccc2)CSc2ccccc2C1=O` [Example Compound 41, 3,3-bis(phenylcarbamoyloxymethyl)thiochroman-4-one], for which the activation at 10 µM in series [1] was 38%. Also, the inhibition at 10 µM in series [1] was 14%; in series [2], 95%. For the same compound, the EC50 in series [1] (FLIPR) worked out at 2.4 µM; in series [2] (FLIPR) it was 0.995 µM.
